Experimental data published in US10532066B2, “Surfactant lipids, compositions thereof, and uses thereof” (National Jewish Health, priority 2007, dated 2020).

How the values were obtained:
MD-2 = target: T1, MD-2 (Homo sapiens, UniProt Q9Y6Y9); test: MD-2 binding to solid phase phospholipids; conditions: for binding to MD-2: 1.25 nmole lipid per well, MD-2 1 μg/ml
T1 construct: made in house; host or cells: baculovirus-insect cell expression system
T1 sequence (Q9Y6Y9 19-160): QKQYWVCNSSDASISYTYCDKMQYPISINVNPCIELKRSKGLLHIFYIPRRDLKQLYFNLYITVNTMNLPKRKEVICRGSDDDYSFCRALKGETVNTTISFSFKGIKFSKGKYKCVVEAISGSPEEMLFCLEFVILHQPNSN
Protocol: FIG. 16. MD-2 preferentially binds POPG.
The wells were then washed with 20 mM Tris buffer (pH 7.4) containing 0.15 M NaCl and 5 mM CaCl2 or 2 mM EGTA (buffer B), and 1 μg/ml anti-human CD14 IgG or anti-His antibody (50 μl/well) in buffer A was added and incubated overnight at 4° C., followed by the incubation with horseradish peroxidase (HRP)-labeled anti-mouse IgG (1:5000) for 1 h. After washing the wells with buffer B, the peroxidase reaction was finally performed using o-phenylenediamine as a substrate. The binding of CD14 or MD-2 to phospholipids was detected by measuring absorbance at 490 nm.

[1] = tested on: differentiated U937 cells; test: LPS-induced TNF-α secretion by differentiated U937 cells; format: cell-based, human; conditions: LPS 10 ng/ml, 6 h, liposomes; LPS without phospholipid = 100%
Protocol: FIG. 1. Anionic phospholipids inhibit inflammatory mediator production induced by LPS. Liposomes composed of sphingomyelin (SM), phosphatidylethanolamine (PE) dipalmitoyl-phosphatidylcholine ((DPPC), phosphatidylserine (PS), palmitoyl-oleoyl-phosphatidylglycerol (POPG) and phosphatidylinositol (PI) were formed by bath-sonication for 30 min at room temperature. LPS (10 ng/ml) and different concentrations of phospholipids were added to monolayer cultures of differentiated U937 cells (A), or primary rat alveolar macrophages (B). At 6 h after stimulation, media were collected and secreted TNF-α levels were determined in U937 cultures. NO production was determined 24 h after stimulating rat alveolar macrophages. LPS stimulation in the absence of phospholipid was set as 100%. […] The average TNF-α production upon LPS stimulation was (8.0±0.54 ng/ml). The average NO production upon LPS stimulation was 12.17±0.27 μM.
FIG. 2. The inhibitory effect of phosphatidylglycerols on LPS-induced inflammatory mediator production is molecular species specific. PG liposomes were formed by bath-sonication for 30 min at room temperature. LPS (10 ng/ml) and different concentrations of PG were added to monolayer cultures of differentiated U937 cells (A) or rat alveolar macrophages (B). Media TNF-α measurements were performed 6 h after stimulation. Media NO measurements were performed 24 h after stimulation. LPS stimulation without PG was set at 100%. The molecular species of PG shown on the graph are 8:0; dioctanoyl-phosphatidylglycerol, 12:0; dilauroyl-phosphatidylglycerol (DLPG), 14:0; dimyristoyl-phosphatidylglycerol (DMPG), 16:0; dipalmitoyl-phosphatidylglycerol (DPPG), 18:0; distearoyl-phosphatidylglycerol, 16:0/18:1; palmitoyl-oleoyl-phosphatidylglycerol (POPG). […] The average TNF-α production upon LPS stimulation was 11.3±0.7 ng/ml. The average NO production upon LPS stimulation was 10.1±0.6 μM.
FIG. 3. […] Surfactant lipid (SL) and POPG were dried under nitrogen, and hydrated at 37° C. for 1 h. (A) SL and POPG were mixed in organic solvents prior to drying and hydrating and subsequently liposomes were produced. (B) SL and POPG were made as independent populations of liposomes that were subsequently mixed prior to macrophage treatment. 10 ng/ml of LPS and different concentrations of liposome mixtures were added to monolayer cultures of differentiated U937 cells. 6 h after stimulation, media were collected and TNF-α production was determined. LPS stimulation without phospholipid was set as 100%. […] The average TNF-α production upon LPS stimulation was 7.0±0.2 ng/ml.
U937 cells were induced to differentiate by treatment with 10 nM phorbol myristate acetate (PMA) for 48 h. The cells (1.3×10^5/well) were placed in 96-well plates and further incubated in the absence of PMA for 24 h in RPMI 1640 medium containing 10% BGS. Rat alveolar macrophages (5×10^5/well) were incubated in 24-well plates for 2 h after isolation. The indicated concentration of phospholipids was added to the cultures 30 min before adding LPS. After LPS addition cultures were incubated for 6 h at 37° C. at an atmosphere of 95% air and 5% CO2. At the end of the incubation period the medium was collected and assayed for TNF-α concentrations using an ELISA kit.
Surfactant lipids were isolated from the bronchioalveolar lavage of Sprague-Dawley rats, 28 days after intratracheal instillation of 25 mg of silica (˜125 mg/kg). Initially, the surfactant was purified by the method of Hawgood et. al. (25) using NaBr density gradient centrifugation. The purified surfactant was extracted with butanol (26) and segregated into butanol-soluble and -insoluble material.

BALB/c mice = test: Lung inflammation induced by intratracheally administered LPS; conditions: LPS 1 μg + phospholipids 30 μg sprayed into trachea, 18 h
Protocol: A mixture of LPS (1 μg) and phospholipids (30 μg) in 20 μl of PBS was sprayed into murine trachea using a MicroSprayer™ aerosolizer. At 18 h after stimulation, lungs were lavaged via the trachea. TNF-α production (A) was determined by ELISA. The number of leukocytes was counted and differential cell counts (B) were determined from at least 300 cells on cytocentrifuged preparations. Mouse KC (C) and MIP-2 (D) secretion were determined using Quantikine kits (R&D System). The data shown are the means±S.E. from six to eight mice.
Human and mouse TNF-α ELISA kits were purchased from BioSource (Camarillo, Calif.). Mouse KC and MIP-2 Quantikine kits were purchased from R&D System. Measurements of these cytokines were according to the manufacturers' protocols.
Female BALB/c mice from 6 to 8 weeks of age were obtained from Jackson Laboratories (Bar Harbor, Me.). Experiments were conducted under a protocol approved by the Institutional Animal Care and Use Committee of the National Jewish Medical and Research Center. Liposomes were formed using a Liposofast™ (Avestin; Ottawa, Canada), which makes unilamellar liposomes of 100 nm of diameter, and then mixed with an aqueous solution containing LPS. The mixture of LPS and phospholipids was sprayed into murine trachea using a MicroSprayer™ aerosolizer (PennCentury, Philadelphia, Pa.) under isoflurene anesthesia. […] After stimulation, lungs were lavaged via the trachea with 1 ml of Hank's balanced salt solution (Invitrogen Corporation, Carlsbad, Calif.). The volume of collected BALF was measured in each sample and the number of leukocytes was counted (Coulter Counter; Coulter Corporation, Hialeah, Fla.). Differential cell counts were determined from at least 300 cells on cytocentrifuged preparations (Cytospin; Shandon Ltd., Runcorn, Cheshire, UK). Slides were stained with modified Wright-Giemsa (Hema; Protocol, Swedesboro, N.J.) and the cell populations differentiated by standard hematologic procedures. Cytokine levels in the BALF or in the supernatants of cultured airway macrophages were measured using ELISA kits.

LBP binding to CD14 = target: T2, LBP binding to CD14 (Homo sapiens, UniProt P08571); test: Phospholipid competition for LBP-CD14 binding; conditions: LBP 1 μg/ml, liposomes 20 μg/ml
T2 construct: purchased Cell Sciences Inc. (CD14); R&D systems (LBP)
T2 sequence (P08571 20-345 limits assumed): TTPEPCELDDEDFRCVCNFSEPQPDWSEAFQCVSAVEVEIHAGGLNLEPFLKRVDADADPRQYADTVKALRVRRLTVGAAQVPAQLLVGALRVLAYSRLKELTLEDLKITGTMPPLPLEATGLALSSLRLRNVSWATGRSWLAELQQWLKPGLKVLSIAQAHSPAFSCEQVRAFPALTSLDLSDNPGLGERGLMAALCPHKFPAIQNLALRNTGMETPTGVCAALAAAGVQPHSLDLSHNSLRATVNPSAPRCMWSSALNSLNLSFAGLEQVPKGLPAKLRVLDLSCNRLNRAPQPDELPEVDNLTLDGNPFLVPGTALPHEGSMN
Protocol: CD14 (2 μg) or sTLR4 (100 ng) in aliquots of 20 μl of buffer B were pipeted onto a 96-well plate, and the solvent evaporated using a warm air dryer. […] The amount of bound LBP or MD-2 was detected using specific antibodies.

Molecule: CCCCCCCCCCCCCC(=O)OCC(COP(=O)(O)OCC(O)CO)OC(=O)CCCCCCCCCCCCC (centres unmarked) [DMPG, dimyristoyl-phosphatidylglycerol]
- binding to MD-2 relative to the POPG value (MD-2; POPG = 100%): ~50%
- LPS-induced TNF-α production [1]: as potent as POPG
- KC secretion in BALF (BALB/c mice): attenuated
- LPS-induced neutrophil infiltration (BALB/c mice): modestly attenuated
- MIP-2 secretion in BALF (BALB/c mice): attenuated
- TNF-α secretion in the lung (BALF) (BALB/c mice): significantly attenuated

Molecule: CCCCCCCCCCCCCCCC(=O)OC[C@H](COP(=O)([O-])OCC[N+](C)(C)C)OC(=O)CCCCCCCCCCCCCCC [DPPC, dipalmitoyl-phosphatidylcholine, reference compound]
- LPS-induced TNF-α production [1]: no significant effect
- LPS-induced neutrophil infiltration (BALB/c mice): not
- TNF-α secretion in the lung (BALF) (BALB/c mice): unaffected
- reduction of the interaction of LBP with CD14 (LBP binding to CD14): not exhibited

Molecule: CCCCCCCCCCCCCCCC(=O)OCC(COP(=O)(O)OCC(O)CO)OC(=O)CCCCCCCCCCCCCCC (centres unmarked) [DPPG, dipalmitoyl-phosphatidylglycerol, reference compound]
- binding to MD-2 (MD-2): Neither saturated nor unsaturated PC, nor unsaturated PI, nor DPPG showed any significant binding
- LPS-induced TNF-α production [1]: failed to antagonize

Molecule: CCCCCCCC/C=C\CCCCCCCC(=O)O[C@H](COC(=O)CCCCCCCCCCCCCCC)COP(=O)(O)OCC(O)CO (some centres unmarked) [POPG, palmitoyl-oleoyl-phosphatidylglycerol]
- binding to MD-2 (MD-2): strongly bound
- LPS-induced TNF-α production [1]: significantly attenuated
- KC secretion in BALF (BALB/c mice): especially POPG attenuated
- LPS-induced neutrophil infiltration (BALB/c mice): modestly attenuated
- MIP-2 secretion in BALF (BALB/c mice): especially POPG attenuated
- TNF-α secretion in the lung (BALF) (BALB/c mice): significantly attenuated
- reduction of the interaction of LBP with CD14 (LBP binding to CD14): approximately 40%

Molecule: phosphatidylinositol [PI]
- binding to MD-2 (MD-2): Neither saturated nor unsaturated PC, nor unsaturated PI, nor DPPG showed any significant binding
- LPS-induced TNF-α production [1]: significantly attenuated
- KC secretion in BALF (BALB/c mice): attenuated
- LPS-induced neutrophil infiltration (BALB/c mice): modestly attenuated
- MIP-2 secretion in BALF (BALB/c mice): attenuated
- TNF-α secretion in the lung (BALF) (BALB/c mice): significantly attenuated
- reduction of the interaction of LBP with CD14 (LBP binding to CD14): not exhibited
